“And” between values parts separate entries of the source, which are not always exact repeats. Equal values may be shown once.
Assays:
S. aureus ATCC 29213 = assay: MIC, broth microdilution; assay type: cell-based, Staphylococcus aureus; conditions: Staphylococcus aureus, ATCC29213; SA = S. aureus ATCC 29213; read-out: MICs
Description: (§1) The modified broth microdilution method was used for in vitro evaluation of minimum inhibitory concentration. A small portion of bacterial colony cultivated overnight onto nutrient agar (Oxoid, Basingstoke, UK) with 5% bovine blood was suspended in sterile phosphate-buffered saline to get cell density 0.5 McFarland. This inoculum was diluted to reach the final concentration of bacterial cells 5 × 10^5 CFU/mL in the wells. […] For plates with staphylococci, cation adjusted Mueller–Hinton (CaMH) broth (Oxoid) was used; enterococci were cultivated in brain heart infusion (BHI, Oxoid). […] A drug-free control and a sterility control were included. Inoculated plates were incubated in aerobic atmosphere at 37 °C overnight. […] After evaluation of MICs, 10 µL of aliquots from the wells were put onto Mueller–Hinton agar. The agar plates were cultivated at 37 °C for 24 h. The minimum bactericidal concentration (MBC) was defined as the lowest concentration of the compound that killed 99.9% of the bacteria compared to the starting inoculum.

[1] = tested on: methicillin-resistant S. aureus 63718; assay: MIC, broth microdilution; assay type: cell-based, Staphylococcus aureus; conditions: Staphylococcus aureus; MRSA1 = S. aureus 63718; read-out: MICs
Description: as §1

[2] = tested on: methicillin-resistant S. aureus SA 3202; assay: MIC, broth microdilution; assay type: cell-based, Staphylococcus aureus; conditions: Staphylococcus aureus; MRSA3 = SA 3202; read-out: MICs
Description: as §1

[3] = tested on: methicillin-resistant S. aureus SA 630; assay: MIC, broth microdilution; assay type: cell-based, Staphylococcus aureus; conditions: Staphylococcus aureus; MRSA2 = SA 630; read-out: MICs
Description: as §1

E. faecalis ATCC 29212 = assay: MIC, broth microdilution; assay type: cell-based, Enterococcus faecalis; conditions: Enterococcus faecalis, ATCC 29212 / ATCC 29213; EF = E. faecalis ATCC 29213
Description: as §1

[4] = tested on: vancomycin-resistant enterococci VRE 342B; assay: MIC, broth microdilution; assay type: cell-based, Enterococcus faecalis; conditions: Enterococcus; VRE1 = VRE 342B; read-out: MICs
Description: as §1

[5] = tested on: vancomycin-resistant enterococci VRE 368; assay: MIC, broth microdilution; assay type: cell-based, Enterococcus faecalis; conditions: Enterococcus; VRE2 = VRE 368; read-out: MICs
Description: as §1

[6] = tested on: vancomycin-resistant enterococci VRE 725B; assay: MIC, broth microdilution; assay type: cell-based, Enterococcus faecalis; conditions: Enterococcus; VRE3 = VRE 725B; read-out: MICs
Description: as §1

[7] = tested on: Candida albicans CCM 8261; assay: minimum fungistatic concentration, RPMI 1640; assay type: cell-based; conditions: CCM8261, CA = C albicans CCM 8261, 48 h
Description: Fungistatic activity was tested similarly in RPMI (Roswell Park Memorial Institute) 1640 medium (Sigma, Pool, UK). […] A growth control and sterility control were included. The colonies of C. albicans grown overnight on Sabourad dextrose agar were suspended in sterile phosphate-buffered saline (PBS) to get cell density 0.5 McFarland. The inoculum was diluted to get a final concentration of 10^3 CFU/mL in the wells. Plates were inoculated and cultivated at 37 °C for 48 h. The minimum fungistatic concentration was visually evaluated as the lowest concentration of a tested compound, which inhibited 100% of yeast growth. 5-Flucytosin (Sigma, UK) was used as a positive control.

[8] = tested on: human monocytic leukemia THP-1 cells; assay: in vitro antiproliferative assay (WST-1); assay type: cell-based; conditions: Homo sapiens, THP-1, 24 h, THP-1 cells, WST-1, 24 h; read-out: Tox IC50
Description: The preliminary in vitro screening of the antiproliferative effect of the investigated compounds was performed using a Water Soluble Tetrazolium salts-1 (WST-1) assay kit and a human monocytic leukemia THP-1 cell line by means of the method described recently. The principle of the WST-1 assay kit is the […] mitochondrial dehydrogenases by antiproliferative compounds. The activity of this enzyme directly correlates with the number of metabolically active cells in the culture. The antiproliferative effect was evaluated as the IC50 value (the concentration of the compound causing 50% inhibition of cell proliferation).
Human monocytic leukemia THP-1 cells were used for in vitro antiproliferative assay. Cells were obtained from the European Collection of Cell Cultures (ECACC, Salisbury, UK) and routinely cultured in RPMI (Roswell Park Memorial Institute) 1640 medium supplemented with 10% fetal bovine serum, 2% L-glutamine, 1% penicillin, and streptomycin at 37 °C with 5% CO2. Cells were passaged at approximately one-week intervals. The antiproliferative activity of the compounds was determined using a Water Soluble Tetrazolium Salts-1 (WST-1, 2-(4-iodophenyl)-3-(4-nitrophenyl)-5-(2,4-disulfophenyl)-2H-tetrazolium) assay kit (Roche Diagnostics, Mannheim, Germany) according to the manufacturer’s instructions. The tested compounds were dissolved in DMSO and added in various compound concentrations to the cell suspension in the culture RPMI 1640 medium. The maximum concentration of DMSO in the assays never exceeded 0.1%. Subsequently, the cells were incubated at 37 °C with 5% CO2 for 24 h. For WST-1 assays, cells were seeded into 96-well plates (5 × 10^4 cells/well in 100 μL culture medium) in triplicate in serum-free RPMI 1640 medium, and measurements were taken 24 h after the treatment with the compounds. The median inhibition concentration values, IC50, were deduced through the production of a dose-response curve. All data were evaluated using GraphPad Prism 5.00 software (GraphPad Software, San Diego, CA, USA).

[9] = set-up: method as in PMID 30274224; conditions: isocratic RP-HPLC, extrapolated lipophilicity index; cited from earlier work
[10] = set-up: method as in PMID 30274224; conditions: cited from earlier work
[11] = set-up: method as in PMID 30274224; conditions: methanolic solutions, c = 8.0 × 10^−5 M; cited from earlier work

SMILES | MIC (S. aureus ATCC 29213) | MIC [1] | MIC [2] | MIC [3] | MIC (E. faecalis ATCC 29212) | MIC [4] | MIC [5] | MIC [6] | MIC [7] | IC50 [8] | log kw [9] | γ (surface tension, relative surface activity) [10] | log ε2 (Ch-T) [11]
CCCCOc1ccccc1NC(=O)OC(CN(CCC)CCC)CN1CCCC1 (centres unmarked) [1a] | > 256 µg/mL and > 427 µM | > 256 µg/mL and > 427 µM | > 256 µg/mL and > 427 µM | > 256 µg/mL and > 427 µM | > 256 µg/mL and > 427 µM | > 256 µg/mL and > 427 µM | > 256 µg/mL and > 427 µM | > 256 µg/mL and > 427 µM | > 128 µg/mL and > 213 µM | 10.8 ± 1.11 µM | 3.7688 | 0.06464 N/m | 4.19
CCCCCOc1ccccc1NC(=O)OC(CN(CCC)CCC)CN1CCCC1 (centres unmarked) [1b] | > 256 µg/mL and > 417 µM | > 256 µg/mL and > 417 µM | > 256 µg/mL and > 417 µM | > 256 µg/mL and > 417 µM | > 256 µg/mL and > 417 µM | > 256 µg/mL and > 417 µM | > 256 µg/mL and > 417 µM | > 256 µg/mL and > 417 µM | > 128 µg/mL and > 208 µM | 12.5 ± 1.22 µM | 4.0454 | 0.06366 N/m | 4.05
CCCCCCOc1ccccc1NC(=O)OC(CN(CCC)CCC)CN1CCCC1 (centres unmarked) [1c] | > 256 µg/mL and > 407 µM | > 256 µg/mL and > 407 µM | > 256 µg/mL and > 407 µM | > 256 µg/mL and > 407 µM | > 256 µg/mL and > 407 µM | > 256 µg/mL and > 407 µM | > 256 µg/mL and > 407 µM | > 256 µg/mL and > 407 µM | > 128 µg/mL and > 203 µM | 15.4 ± 0.22 µM | 4.6049 | 0.06222 N/m | 4.52
CCCCCCCOc1ccccc1NC(=O)OC(CN(CCC)CCC)CN1CCCC1 (centres unmarked) [1d] | > 256 µg/mL and > 398 µM | > 256 µg/mL and > 398 µM | > 256 µg/mL and > 398 µM | > 256 µg/mL and > 398 µM | > 256 µg/mL and > 398 µM | > 256 µg/mL and > 398 µM | > 256 µg/mL and > 398 µM | > 256 µg/mL and > 398 µM | > 128 µg/mL and 199 µM | 16.3 ± 0.7 µM | 4.9487 | 0.05985 N/m | 4.08
CCCCOc1cccc(NC(=O)OC(CN(CCC)CCC)CN2CCCC2)c1 (centres unmarked) [1e] | 64 µg/mL and 129 µM | 64 µg/mL and 129 µM | 64 µg/mL and 129 µM | 64 µg/mL and 129 µM | 128 µg/mL and 259 µM | 32 µg/mL and 65.1 µM | 64 µg/mL and 129 µM | 32 µg/mL and 65.1 µM | > 128 µg/mL and > 259 µM | 4.2 ± 0.79 µM | 4.0258 | 0.06316 N/m | 4.24
CCCCOc1ccccc1NC(=O)OC(CN(CCC)CCC)CN1CCCCCC1 (centres unmarked) [1i] | > 256 µg/mL and > 407 µM | > 256 µg/mL and > 407 µM | > 256 µg/mL and > 407 µM | > 256 µg/mL and > 407 µM | > 256 µg/mL and > 407 µM | > 256 µg/mL and > 407 µM | > 256 µg/mL and > 407 µM | > 256 µg/mL and > 407 µM | > 128 µg/mL and > 203 µM | 23.1 ± 0.95 µM | 4.4679 | 0.06302 N/m | 4.08
CCCCCOc1ccccc1NC(=O)OC(CN(CCC)CCC)CN1CCCCCC1 (centres unmarked) [1j] | > 256 µg/mL and > 398 µM | > 256 µg/mL and > 398 µM | > 256 µg/mL and > 398 µM | > 256 µg/mL and > 398 µM | > 256 µg/mL and > 398 µM | > 256 µg/mL and > 398 µM | > 256 µg/mL and > 398 µM | > 256 µg/mL and > 398 µM | > 128 µg/mL and > 199 µM | 26.4 ± 1.91 µM | 4.8466 | 0.06206 N/m | 4.22
CCCCCCOc1ccccc1NC(=O)OC(CN(CCC)CCC)CN1CCCCCC1 (centres unmarked) [1k] | > 256 µg/mL and > 390 µM | > 256 µg/mL and > 390 µM | > 256 µg/mL and > 390 µM | > 256 µg/mL and > 390 µM | > 256 µg/mL and > 390 µM | > 256 µg/mL and > 390 µM | > 256 µg/mL and > 390 µM | > 256 µg/mL and > 390 µM | > 128 µg/mL and > 195 µM | 31.2 ± 2.24 µM | 5.2359 | 0.06065 N/m | 4.10
CCCCCCCOc1ccccc1NC(=O)OC(CN(CCC)CCC)CN1CCCCCC1 (centres unmarked) [1l] | > 256 µg/mL and > 382 µM | > 256 µg/mL and > 382 µM | > 256 µg/mL and > 382 µM | > 256 µg/mL and > 382 µM | > 256 µg/mL and > 382 µM | > 256 µg/mL and > 382 µM | > 256 µg/mL and > 382 µM | > 256 µg/mL and > 382 µM | > 128 µg/mL and > 191 µM | 29.75 ± 0.14 µM | 5.8966 | 0.05853 N/m | 4.14
Nc1[nH]c(=O)ncc1F [5-FC, flucytosine, reference compound] | – | – | – | – | – | – | – | – | 1 µg/mL and 7.75 µM | – | – | – | –
CC1(C)S[C@@H]2[C@H](NC(=O)[C@H](N)c3ccccc3)C(=O)N2[C@H]1C(=O)O [AMP, ampicillin, reference compound] | 2 µg/mL and 5.72 µM | 16 µg/mL and 45.8 µM | > 16 µg/mL and > 45.8 µM | > 16 µg/mL and > 45.8 µM | – | – | – | 2 µg/mL and 5.72 µM | – | > 30 µM | – | – | –
CC[C@@]1(O)C(=O)OCc2c1cc1n(c2=O)Cc2cc3ccccc3nc2-1 [CMP, camptothecin, reference compound] | – | – | – | – | – | – | – | – | – | ~0.2 µM | – | – | –
O=C(O)c1cn(C2CC2)c2cc(N3CCNCC3)c(F)cc2c1=O [CPX, ciprofloxacin, reference compound] | – | > 16 µg/mL | > 16 µg/mL | > 16 µg/mL | – | – | – | – | – | – | – | – | –

Reference: PMC7168207, “Dibasic Derivatives of Phenylcarbamic Acid as Prospective Antibacterial Agents Interacting with Cytoplasmic Membrane” (Antibiotics, 2020)
